Measured values taken from patent US20250114299A1, “COMBINATION THERAPY INTRAVAGINAL RINGS” (The population Council, Inc., priority 2022, published 2025).
Where two headings read alike, the source gives them in different places.

Columns and labels:
[1] = system: wild-type HIV-1 strains and HIV-1 strains harboring different resistance-inducing mutations; settings: Das et al., J. Med Chem., 2004; cited from earlier work
[2] = Solubility of DPV (Form I) in various solvents; format: physicochemical
[3] = pKa of DPV (chemical properties); format: physicochemical

In the case of `Cc1cc(C)c(Nc2ccnc(Nc3ccc(C#N)cc3)n2)c(C)c1` [DPV, 4-[[4-[(2,4,6-trimethylphenyl)amino]-2-pyrimidinyl]amino]benzonitrile], the “activity against wild-type and resistant HIV-1 strains” value [1] is listed as “potent activity”, the Solubility ([2]; Form I, 0.01M HCl) is listed as 0.17 mg/g and the Solubility ([2]; Form I, 0.1M HCl) is listed as 0.02 mg/g. For the same molecule, the Solubility ([2]; Form I, 0.1M NaOH) was 0.001 mg/g, the Solubility ([2]; Form I, Buffer pH 2) was 0.095 mg/g and the Solubility ([2]; Form I, Buffer pH 4) was 0.0025 mg/g. The Solubility ([2]; Form I, Buffer pH 6) was 0.001 mg/g, the Solubility ([2]; Form I, Buffer pH 8) was 0.001 mg/g and the Solubility ([2]; Form I, Buffer pH 10) was 0.001 mg/g. It also gave a Solubility ([2]; Form I, Polyethylene glycol 400) of 47.4 mg/g, a Solubility ([2]; Form I, Propylene glycol) of 2.69 mg/g and a Solubility ([2]; Form I, Water) of 0.001 mg/g. The “solubility in water” value ([2]; water) was “virtually insoluble in water”, the Solubility ([2]; water, read-out: solubility of dapivirine in water) was less than 1 µg/mL and the pKa [3] was 5.8.
